From patent publication US20230233567A1, “BELVARAFENIB FOR USE IN CANCER TREATMENT” (Hanmi Pharm. Co., Ltd., priority 2020, published 2023)
Like-named read-outs stand apart in the source and are kept apart here.

Test: Phase I study plasma pharmacokinetics
Assay type: in vivo, human
Settings: human, plasma; for AUC(0-inf) / AUC(0-t) / Cmax / AUC / Vd/F: mean; for AUC: read-out: AUC24; for Vd/F: read-out: Vz/F; for half-life: read-out: median t1/2 at steady state
Excerpt: The PK parameters of belvarafenib were estimated in 48 patients in the dose-escalation phase and 35 patients in the dose-expansion phase. In the tables: “AUClast” refers to the area under the plasma concentration-time curve from zero time until the last measurable concentration; “AUC0-∞” refers to area under the plasma concentration-time curve from zero time to infinity; “AUC24” refers to the area under the curve from T0 to T24; “Cmax” refers to the maximal concentration; “Tmax” refers to the time to reach Cmax; “T1/2β” refers to the terminal elimination half-life; “QD” refers to once a day; and “BID” refers to twice a day. […] Mean and coefficient of variation are presented except for Tmax where median and range are presented. One patient in the 200 QD dosing regimen who took concomitant rifampin was removed from the analysis because the AUC and Cmax of the patient were much lower than those of the others in the same cohort, which, without being bound to any particular theory, could have resulted from the drug-metabolizing enzyme induction by rifampin through which belvarafenib is biotransformed.

[1] = oral, 600 mg/day, Multiple administrations Day 22, 600 mg/day QD, n=6
[2] = oral, 900 mg/day, Multiple administrations Day 22, 900 mg/day BID, n=7
[3] = oral, 1300 mg/day, Multiple administrations Day 22, 1300 mg/day BID, n=6
[4] = oral, 1600 mg/day, Multiple administrations Day 22, 1600 mg/day BID, n=4
[5] = po, 50 mg/day QD, Day 1 first dose, 50 mg/day QD, n=3
[6] = po, 100 mg/day QD, Day 1 first dose, 100 mg/day QD, n=3
[7] = po, 200 mg, Day 1 first dose, 200 mg/day QD, n=6
[8] = po, 200 mg/day QD, Day 1 first dose, 200 mg/day QD, n=7
[9] = po, 400 mg/day BID, Day 1 first dose, 400 mg/day BID, n=11
[10] = po, 600 mg/day BID, Day 1 first dose, 600 mg/day BID, n=7
[11] = po, 600 mg/day, Day 1 first dose, 600 mg/day BID, n=7
[12] = po, 600 mg/day, Day 1 first dose, 600 mg/day QD, n=6
[13] = po, 900 mg/day, Day 1 first dose, 900 mg/day BID, n=8
[14] = po, 1300 mg/day, Day 1 first dose, 1300 mg/day BID, n=6
[15] = po, 1600 mg/day, Day 1 first dose, 1600 mg/day BID, n=6

Work on `Cc1ccc2c(Nc3cccc(Cl)c3F)nccc2c1NC(=O)c1csc2c(N)ncnc12` [Belvarafenib] yielded an AUC(0-inf) [1] of 434000 ng·h/mL, an AUC(0-t) [1] of 57600 ng·h/mL and a Cmax [1] of 3130 ng/mL. The AUC [1] was 58000 ng·h/mL, the Vd/F [1] was 241 L and the Tmax (oral, 600 mg/day, Multiple administrations Day 22, 600 mg/day QD, n=6, median, read-out: Tmax) was 4.1 h. The AUC(0-inf) [2] was 322000 ng·h/mL, the AUC(0-t) [2] was 126000 ng·h/mL and the Cmax [2] was 6090 ng/mL. The AUC [2] was 127000 ng·h/mL, the Vd/F [2] was 148 L and the Tmax (oral, 900 mg/day, Multiple administrations Day 22, 900 mg/day BID, n=7, median, read-out: Tmax) was 2.9 h. For the same molecule, the AUC(0-inf) [3] was 625000 ng·h/mL, the AUC(0-t) [3] was 158000 ng·h/mL and the Cmax [3] was 7320 ng/mL. For the same molecule, the AUC [3] was 159000 ng·h/mL, the Vd/F [3] was 195 L and the Tmax (oral, 1300 mg/day, Multiple administrations Day 22, 1300 mg/day BID, n=6, median, read-out: Tmax) was 2 h. It also gave an AUC(0-inf) [4] of 139000 ng·h/mL, an AUC(0-t) [4] of 49200 ng·h/mL and a Cmax [4] of 2360 ng/mL. For the same molecule, the AUC [4] was 49600 ng·h/mL, the Vd/F [4] was 871 L and the Tmax (oral, 1600 mg/day, Multiple administrations Day 22, 1600 mg/day BID, n=4, median, read-out: Tmax) was 5.5 h. It also gave a Tmax (oral, BID regimens, read-out: Single-dose median Tmax) of 15.5 to 24 h, a half-life (oral, BID regimens) of 32.3 to 66.4 h and a Tmax (oral, QD regimens, read-out: Single-dose median Tmax) of 3 to 4.5 h. For the same molecule, the half-life (oral, QD regimens) was 65.1 to 106 h, the AUC(0-inf) [5] was 27000 ng·h/mL and the Cmax [5] was 553 ng/mL. For the same molecule, the Vd/F [5] was 186 L, the Tmax (po, 50 mg/day QD, Day 1 first dose, 50 mg/day QD, n=3, median, read-out: Tmax) was 3 h and the AUC(0-t) (po, 50 mg/day, Day 1 first dose, 50 mg/day QD, n=3) was 13000 ng·h/mL. It also gave an AUC(0-inf) [6] of 51500 ng·h/mL, a Cmax [6] of 807 ng/mL and a Vd/F [6] of 215 L. The Tmax (po, 100 mg/day QD, Day 1 first dose, 100 mg/day QD, n=3, median, read-out: Tmax) was 3 h, the AUC(0-t) (po, 100 mg/day, Day 1 first dose, 100 mg/day QD, n=3) was 45000 ng·h/mL and the AUC(0-inf) [7] was 37800 ng·h/mL. It also gave an AUC(0-t) [7] of 28800 ng·h/mL, a Cmax [7] of 602 ng/mL and a Vd/F [7] of 529 L. The Tmax (po, 200 mg, Day 1 first dose, 200 mg/day QD, n=6, median, read-out: Tmax) was 4.4 h, the AUC(0-inf) [8] was 32800 ng·h/mL and the Cmax [8] was 549 ng/mL. The Vd/F [8] was 550 L, the Tmax (po, 200 mg/day QD, Day 1 first dose, 200 mg/day QD, n=7, median, read-out: Tmax) was 4.1 h and the AUC(0-t) (po, 200 mg/day, Day 1 first dose, 200 mg/day QD, n=7) was 25100 ng·h/mL. The AUC(0-inf) [9] was 78300 ng·h/mL, the Cmax [9] was 900 ng/mL and the Vd/F [9] was 758 L. It also gave a Tmax (po, 400 mg/day BID, Day 1 first dose, 400 mg/day BID, n=11, median, read-out: Tmax) of 6.9 h, an AUC(0-t) (po, 400 mg/day, Day 1 first dose, 400 mg/day BID, n=11) of 62300 ng·h/mL and an AUC(0-inf) [10] of 169000 ng·h/mL. For the same molecule, the AUC(0-t) [10] was 121000 ng·h/mL, the AUC(0-t) (po, 600 mg/day QD, Day 1 first dose, 600 mg/day QD, n=6) was 71100 ng·h/mL and the Cmax [11] was 1210 ng/mL. For the same molecule, the Vd/F [11] was 884 L, the Tmax (po, 600 mg/day, Day 1 first dose, 600 mg/day BID, n=7, median, read-out: Tmax) was 24 h and the AUC(0-inf) [12] was 84700 ng·h/mL. It also gave a Cmax [12] of 1320 ng/mL, a Vd/F [12] of 798 L and a Tmax (po, 600 mg/day, Day 1 first dose, 600 mg/day QD, n=6, median, read-out: Tmax) of 4.5 h. The AUC(0-inf) [13] was 177000 ng·h/mL, the Cmax [13] was 1590 ng/mL and the Vd/F [13] was 534 L. The Tmax (po, 900 mg/day, Day 1 first dose, 900 mg/day BID, n=8, median, read-out: Tmax) was 17 h, the AUC(0-t) (po, 1300 mg/day BID, Day 1 first dose, 1300 mg/day BID, n=6) was 156000 ng·h/mL and the AUC(0-inf) [14] was 225000 ng·h/mL. It also gave a Cmax [14] of 1790 ng/mL, a Vd/F [14] of 708 L and a Tmax (po, 1300 mg/day, Day 1 first dose, 1300 mg/day BID, n=6, median, read-out: Tmax) of 15.5 h. For the same molecule, the AUC(0-t) (po, 1600 mg/day BID, Day 1 first dose, 1600 mg/day BID, n=6) was 134000 ng·h/mL, the AUC(0-inf) [15] was 336000 ng·h/mL and the Cmax [15] was 1440 ng/mL. The Vd/F [15] was 1700 L and the Tmax (po, 1600 mg/day, Day 1 first dose, 1600 mg/day BID, n=6, median, read-out: Tmax) was 20.4 h.
